Article PMC9571063 (Molecules, 2022)

What was measured:
ALK(L1196M) = target: T1, ALK(L1196M) (Homo sapiens, UniProt Q9UM73, L1196M); experiment: KINOMEscan; assay type: binding; conditions: read-out: Percent Control
T1 construct: purchased Eurofins DiscoverX KINOMEscan (scanMAX 468)

PIK3CA(C420R) = target: T2, PIK3CA(C420R) (Homo sapiens, UniProt P42336, C420R); experiment: KINOMEscan; assay type: binding; conditions: read-out: Percent Control
T2 construct: purchased Eurofins DiscoverX KINOMEscan (scanMAX 468)

PRKCD = target: T3, PRKCD (Homo sapiens, UniProt Q05655); experiment: KINOMEscan; assay type: binding; conditions: read-out: Percent Control
T3 construct: purchased Eurofins DiscoverX KINOMEscan (scanMAX 468)

WNK1 = target: T4, WNK1 (Homo sapiens, UniProt Q9H4A3); experiment: KINOMEscan; assay type: binding; conditions: read-out: Percent Control
T4 construct: purchased Eurofins DiscoverX KINOMEscan (scanMAX 468)

FGFR3(G697C) = target: T5, FGFR3(G697C) (Homo sapiens, UniProt P22607, G697C); experiment: KINOMEscan; assay type: binding; conditions: read-out: Percent Control
T5 construct: purchased Eurofins DiscoverX KINOMEscan (scanMAX 468)

NIM1 = target: T6, NIM1 (Homo sapiens, UniProt Q8IY84); experiment: KINOMEscan; assay type: binding; conditions: read-out: Percent Control
T6 construct: purchased Eurofins DiscoverX KINOMEscan (scanMAX 468)

ERK5 = target: T7, ERK5 (Homo sapiens, UniProt Q13164); experiment: KINOMEscan; assay type: binding; conditions: read-out: Percent Control
T7 construct: purchased Eurofins DiscoverX KINOMEscan (scanMAX 468)

PRKX = target: T8, PRKX (Homo sapiens, UniProt P51817); experiment: KINOMEscan; assay type: binding; conditions: read-out: Percent Control
T8 construct: purchased Eurofins DiscoverX KINOMEscan (scanMAX 468)

PAK7 = target: T9, PAK7 (Homo sapiens, UniProt Q9P286); experiment: KINOMEscan; assay type: binding; conditions: read-out: Percent Control
T9 construct: purchased Eurofins DiscoverX KINOMEscan (scanMAX 468)

MEK5 = target: T10, MEK5 (Homo sapiens, UniProt Q13163); experiment: KINOMEscan; assay type: binding; conditions: read-out: Percent Control
T10 construct: purchased Eurofins DiscoverX KINOMEscan (scanMAX 468)

CAMK1D = target: T11, CAMK1D (Homo sapiens, UniProt Q8IU85); experiment: KINOMEscan; assay type: binding; conditions: read-out: Percent Control
T11 construct: purchased Eurofins DiscoverX KINOMEscan (scanMAX 468)

PKNB(M.tuberculosis) = target: T12, PKNB(M.tuberculosis) (Mycobacterium tuberculosis, UniProt P9WI81); experiment: KINOMEscan; assay type: binding; conditions: read-out: Percent Control
T12 construct: purchased Eurofins DiscoverX KINOMEscan (scanMAX 468)

WEE2 = target: T13, WEE2 (Homo sapiens, UniProt P0C1S8); experiment: KINOMEscan; assay type: binding; conditions: read-out: Percent Control
T13 construct: purchased Eurofins DiscoverX KINOMEscan (scanMAX 468)

MYLK4 = target: T14, MYLK4 (Homo sapiens, UniProt Q86YV6); experiment: KINOMEscan; assay type: binding; conditions: read-out: Percent Control
T14 construct: purchased Eurofins DiscoverX KINOMEscan (scanMAX 468)

HIPK4 = target: T15, HIPK4 (Homo sapiens, UniProt Q8NE63); experiment: KINOMEscan; assay type: binding; conditions: read-out: Percent Control
T15 construct: purchased Eurofins DiscoverX KINOMEscan (scanMAX 468)

MCF7 = tested on: MCF7; design: method as in ref 14 (a number printed in a supplementary file, which may have a reference list of its own: not looked up in the article's list); conditions: DB18[a], footnote not given; read-out: Cytotoxic studies IC50 MCF7; cited from earlier work
PIK3C2B = target: T16, PIK3C2B (Homo sapiens, UniProt O00750); experiment: KINOMEscan; assay type: binding; conditions: read-out: Percent Control
T16 construct: purchased Eurofins DiscoverX KINOMEscan (scanMAX 468)

FLT3(ITD,D835V) = experiment: KINOMEscan; assay type: binding, human; conditions: 1 μM
TRPM6 = target: T17, TRPM6 (Homo sapiens, UniProt Q9BX84); experiment: KINOMEscan; assay type: binding; conditions: read-out: Percent Control
T17 construct: purchased Eurofins DiscoverX KINOMEscan (scanMAX 468)

FGFR4 = target: T18, FGFR4 (Homo sapiens, UniProt P22455); experiment: KINOMEscan; assay type: binding; conditions: read-out: Percent Control
T18 construct: purchased Eurofins DiscoverX KINOMEscan (scanMAX 468)

FGFR3 = target: T19, FGFR3 (Homo sapiens, UniProt P22607); experiment: KINOMEscan; assay type: binding; conditions: read-out: Percent Control
T19 construct: purchased Eurofins DiscoverX KINOMEscan (scanMAX 468)

HuH7 = tested on: HuH7; design: method as in ref 14 (a number printed in a supplementary file, which may have a reference list of its own: not looked up in the article's list); conditions: DB18[a], footnote not given; read-out: Cytotoxic studies IC50 HuH7; cited from earlier work
MKNK1 = target: T20, MKNK1 (Homo sapiens, UniProt Q9BUB5); experiment: KINOMEscan; assay type: binding; conditions: read-out: Percent Control
T20 construct: purchased Eurofins DiscoverX KINOMEscan (scanMAX 468)

AAK1 = target: T21, AAK1 (Homo sapiens, UniProt Q2M2I8); experiment: KINOMEscan; assay type: binding; conditions: read-out: Percent Control
T21 construct: purchased Eurofins DiscoverX KINOMEscan (scanMAX 468)

[1] = target: T22, TYK2(JH1domain-catalytic) (Homo sapiens, UniProt P29597); experiment: KINOMEscan; assay type: binding; conditions: read-out: Percent Control
T22 construct: TYK2(JH1domain-catalytic); purchased Eurofins DiscoverX KINOMEscan (scanMAX 468)

MDA-MB-231 = tested on: MDA-MB-231; design: method as in ref 14 (a number printed in a supplementary file, which may have a reference list of its own: not looked up in the article's list); conditions: DB18[a], footnote not given; read-out: Cytotoxic studies IC50 MDA-MB-231; cited from earlier work
TESK1 = target: T23, TESK1 (Homo sapiens, UniProt Q15569); experiment: KINOMEscan; assay type: binding; conditions: read-out: Percent Control
T23 construct: purchased Eurofins DiscoverX KINOMEscan (scanMAX 468)

ULK1 = target: T24, ULK1 (Homo sapiens, UniProt O75385); experiment: KINOMEscan; assay type: binding; conditions: read-out: Percent Control
T24 construct: purchased Eurofins DiscoverX KINOMEscan (scanMAX 468)

EPHB3 = target: T25, EPHB3 (Homo sapiens, UniProt P54753); experiment: KINOMEscan; assay type: binding; conditions: read-out: Percent Control
T25 construct: purchased Eurofins DiscoverX KINOMEscan (scanMAX 468)

DMPK2 = target: T26, DMPK2 (Homo sapiens, UniProt Q6DT37); experiment: KINOMEscan; assay type: binding; conditions: read-out: Percent Control
T26 construct: purchased Eurofins DiscoverX KINOMEscan (scanMAX 468)

LTK = target: T27, LTK (Homo sapiens, UniProt P29376); experiment: KINOMEscan; assay type: binding; conditions: read-out: Percent Control
T27 construct: purchased Eurofins DiscoverX KINOMEscan (scanMAX 468)

MRCKA = target: T28, MRCKA (Homo sapiens, UniProt Q5VT25); experiment: KINOMEscan; assay type: binding; conditions: read-out: Percent Control
T28 construct: purchased Eurofins DiscoverX KINOMEscan (scanMAX 468)

CAMK2D = target: T29, CAMK2D (Homo sapiens, UniProt Q13557); experiment: KINOMEscan; assay type: binding; conditions: read-out: Percent Control
T29 construct: purchased Eurofins DiscoverX KINOMEscan (scanMAX 468)

EPHA3 = target: T30, EPHA3 (Homo sapiens, UniProt P29320); experiment: KINOMEscan; assay type: binding; conditions: read-out: Percent Control
T30 construct: purchased Eurofins DiscoverX KINOMEscan (scanMAX 468)

BIKE = target: T31, BIKE (Homo sapiens, UniProt Q9NSY1); experiment: KINOMEscan; assay type: binding; conditions: read-out: Percent Control
T31 construct: purchased Eurofins DiscoverX KINOMEscan (scanMAX 468)

PIK4CB = target: T32, PIK4CB (Homo sapiens, UniProt Q9UBF8); experiment: KINOMEscan; assay type: binding; conditions: read-out: Percent Control
T32 construct: purchased Eurofins DiscoverX KINOMEscan (scanMAX 468)

TAOK2 = target: T33, TAOK2 (Homo sapiens, UniProt Q9UL54); experiment: KINOMEscan; assay type: binding; conditions: read-out: Percent Control
T33 construct: purchased Eurofins DiscoverX KINOMEscan (scanMAX 468)

ROS1 = target: T34, ROS1 (Homo sapiens, UniProt P08922); experiment: KINOMEscan; assay type: binding; conditions: read-out: Percent Control
T34 construct: purchased Eurofins DiscoverX KINOMEscan (scanMAX 468)

CTK = target: T35, CTK (Homo sapiens, UniProt P42679); experiment: KINOMEscan; assay type: binding; conditions: read-out: Percent Control
T35 construct: purchased Eurofins DiscoverX KINOMEscan (scanMAX 468)

FRK = target: T36, FRK (Homo sapiens, UniProt P42685); experiment: KINOMEscan; assay type: binding; conditions: read-out: Percent Control
T36 construct: purchased Eurofins DiscoverX KINOMEscan (scanMAX 468)

T4 sequence (Q9H4A3 whole entry): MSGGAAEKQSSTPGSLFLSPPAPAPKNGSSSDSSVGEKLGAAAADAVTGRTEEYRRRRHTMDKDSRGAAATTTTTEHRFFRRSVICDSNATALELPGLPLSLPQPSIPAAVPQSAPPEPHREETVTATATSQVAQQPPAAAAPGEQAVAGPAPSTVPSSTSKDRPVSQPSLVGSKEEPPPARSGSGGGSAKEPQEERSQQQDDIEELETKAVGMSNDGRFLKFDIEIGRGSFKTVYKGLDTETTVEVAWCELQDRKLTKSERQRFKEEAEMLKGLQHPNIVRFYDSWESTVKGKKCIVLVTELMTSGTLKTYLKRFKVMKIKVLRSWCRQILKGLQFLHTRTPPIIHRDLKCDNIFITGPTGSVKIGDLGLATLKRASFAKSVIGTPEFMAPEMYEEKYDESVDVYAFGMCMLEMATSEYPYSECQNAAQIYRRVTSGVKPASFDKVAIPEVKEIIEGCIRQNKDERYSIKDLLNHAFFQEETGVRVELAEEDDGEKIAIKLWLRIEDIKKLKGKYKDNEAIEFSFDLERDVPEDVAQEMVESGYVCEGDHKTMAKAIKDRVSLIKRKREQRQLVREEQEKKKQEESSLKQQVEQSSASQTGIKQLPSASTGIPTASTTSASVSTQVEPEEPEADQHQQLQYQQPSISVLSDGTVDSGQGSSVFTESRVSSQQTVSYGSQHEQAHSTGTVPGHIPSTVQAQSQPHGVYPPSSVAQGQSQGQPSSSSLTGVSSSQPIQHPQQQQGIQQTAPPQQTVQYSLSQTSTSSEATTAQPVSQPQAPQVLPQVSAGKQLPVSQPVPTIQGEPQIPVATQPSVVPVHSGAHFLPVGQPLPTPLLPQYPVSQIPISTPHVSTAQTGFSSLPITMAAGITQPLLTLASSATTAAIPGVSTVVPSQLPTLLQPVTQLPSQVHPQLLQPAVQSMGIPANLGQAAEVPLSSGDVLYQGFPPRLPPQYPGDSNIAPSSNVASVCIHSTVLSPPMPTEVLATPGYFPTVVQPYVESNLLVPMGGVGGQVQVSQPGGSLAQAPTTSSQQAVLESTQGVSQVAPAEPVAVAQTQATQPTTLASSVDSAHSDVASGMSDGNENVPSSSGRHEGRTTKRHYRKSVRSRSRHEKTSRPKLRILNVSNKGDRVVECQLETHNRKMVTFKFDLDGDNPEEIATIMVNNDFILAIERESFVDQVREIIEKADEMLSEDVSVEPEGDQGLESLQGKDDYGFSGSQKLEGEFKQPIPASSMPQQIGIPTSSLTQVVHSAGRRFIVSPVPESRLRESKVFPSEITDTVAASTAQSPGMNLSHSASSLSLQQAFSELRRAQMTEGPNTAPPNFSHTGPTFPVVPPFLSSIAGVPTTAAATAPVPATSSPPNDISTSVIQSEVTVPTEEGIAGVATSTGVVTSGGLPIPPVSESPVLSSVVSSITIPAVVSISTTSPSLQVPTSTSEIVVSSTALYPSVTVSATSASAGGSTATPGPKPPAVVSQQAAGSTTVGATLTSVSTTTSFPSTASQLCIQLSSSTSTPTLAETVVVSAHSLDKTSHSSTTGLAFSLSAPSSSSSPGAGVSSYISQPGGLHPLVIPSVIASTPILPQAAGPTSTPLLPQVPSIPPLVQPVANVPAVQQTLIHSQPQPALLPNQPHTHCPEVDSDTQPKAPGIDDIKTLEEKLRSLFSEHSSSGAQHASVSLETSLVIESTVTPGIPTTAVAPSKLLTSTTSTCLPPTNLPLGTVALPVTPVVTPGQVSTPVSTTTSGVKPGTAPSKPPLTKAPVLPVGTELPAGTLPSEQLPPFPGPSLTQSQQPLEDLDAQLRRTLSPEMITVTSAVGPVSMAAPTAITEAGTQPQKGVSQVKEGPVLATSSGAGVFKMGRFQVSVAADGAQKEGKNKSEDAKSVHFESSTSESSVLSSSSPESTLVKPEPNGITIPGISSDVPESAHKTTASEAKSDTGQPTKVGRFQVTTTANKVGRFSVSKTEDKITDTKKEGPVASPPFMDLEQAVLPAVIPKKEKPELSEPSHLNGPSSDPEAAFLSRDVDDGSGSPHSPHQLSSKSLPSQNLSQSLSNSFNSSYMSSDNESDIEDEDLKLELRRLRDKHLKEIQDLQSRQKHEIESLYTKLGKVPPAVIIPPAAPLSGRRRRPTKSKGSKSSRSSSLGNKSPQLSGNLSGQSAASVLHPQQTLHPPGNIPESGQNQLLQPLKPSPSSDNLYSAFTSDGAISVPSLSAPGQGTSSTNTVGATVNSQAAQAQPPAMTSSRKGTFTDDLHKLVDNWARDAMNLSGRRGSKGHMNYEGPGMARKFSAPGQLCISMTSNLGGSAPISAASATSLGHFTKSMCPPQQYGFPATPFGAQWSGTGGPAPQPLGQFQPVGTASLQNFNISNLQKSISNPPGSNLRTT
T3 sequence (Q05655 whole entry): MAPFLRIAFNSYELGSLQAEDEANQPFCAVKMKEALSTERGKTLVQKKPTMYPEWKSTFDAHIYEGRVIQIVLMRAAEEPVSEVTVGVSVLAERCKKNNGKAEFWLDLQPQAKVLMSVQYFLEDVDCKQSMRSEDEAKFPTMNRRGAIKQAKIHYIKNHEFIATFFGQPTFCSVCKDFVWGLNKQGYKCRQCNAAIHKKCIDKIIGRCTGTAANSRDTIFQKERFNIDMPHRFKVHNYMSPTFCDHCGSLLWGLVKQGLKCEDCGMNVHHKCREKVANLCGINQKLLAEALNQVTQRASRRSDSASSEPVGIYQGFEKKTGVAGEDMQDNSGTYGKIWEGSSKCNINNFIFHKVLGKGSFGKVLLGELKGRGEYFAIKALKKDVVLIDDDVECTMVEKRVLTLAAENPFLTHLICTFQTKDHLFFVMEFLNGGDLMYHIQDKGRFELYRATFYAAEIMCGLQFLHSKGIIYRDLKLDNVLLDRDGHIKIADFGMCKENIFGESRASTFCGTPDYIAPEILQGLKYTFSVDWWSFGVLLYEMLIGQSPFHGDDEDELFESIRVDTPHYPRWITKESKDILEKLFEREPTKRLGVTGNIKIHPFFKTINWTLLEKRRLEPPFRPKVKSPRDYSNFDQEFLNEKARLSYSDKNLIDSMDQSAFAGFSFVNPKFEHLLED
T5 sequence (P22607 23-806 G697C): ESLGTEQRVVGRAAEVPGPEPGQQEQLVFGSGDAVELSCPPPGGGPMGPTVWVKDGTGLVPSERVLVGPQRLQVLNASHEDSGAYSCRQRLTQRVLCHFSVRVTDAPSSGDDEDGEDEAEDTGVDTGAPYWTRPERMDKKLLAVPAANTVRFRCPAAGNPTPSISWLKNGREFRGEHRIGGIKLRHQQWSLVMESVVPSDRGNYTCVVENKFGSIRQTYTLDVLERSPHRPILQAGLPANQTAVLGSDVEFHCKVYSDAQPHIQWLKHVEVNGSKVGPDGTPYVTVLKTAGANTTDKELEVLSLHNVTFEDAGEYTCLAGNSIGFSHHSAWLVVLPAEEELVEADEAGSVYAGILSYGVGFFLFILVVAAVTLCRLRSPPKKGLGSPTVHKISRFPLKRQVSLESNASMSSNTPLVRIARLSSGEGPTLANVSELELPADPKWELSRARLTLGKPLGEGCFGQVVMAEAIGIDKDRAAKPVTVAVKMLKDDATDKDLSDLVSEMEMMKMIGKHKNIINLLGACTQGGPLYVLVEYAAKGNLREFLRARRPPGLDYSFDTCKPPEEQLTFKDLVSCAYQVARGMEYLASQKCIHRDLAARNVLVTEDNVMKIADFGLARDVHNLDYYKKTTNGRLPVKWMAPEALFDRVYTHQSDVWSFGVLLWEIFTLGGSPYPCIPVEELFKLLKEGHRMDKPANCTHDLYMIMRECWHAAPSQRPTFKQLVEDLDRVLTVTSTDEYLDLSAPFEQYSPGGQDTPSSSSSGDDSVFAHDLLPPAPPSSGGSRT
T25 sequence (P54753 34-998): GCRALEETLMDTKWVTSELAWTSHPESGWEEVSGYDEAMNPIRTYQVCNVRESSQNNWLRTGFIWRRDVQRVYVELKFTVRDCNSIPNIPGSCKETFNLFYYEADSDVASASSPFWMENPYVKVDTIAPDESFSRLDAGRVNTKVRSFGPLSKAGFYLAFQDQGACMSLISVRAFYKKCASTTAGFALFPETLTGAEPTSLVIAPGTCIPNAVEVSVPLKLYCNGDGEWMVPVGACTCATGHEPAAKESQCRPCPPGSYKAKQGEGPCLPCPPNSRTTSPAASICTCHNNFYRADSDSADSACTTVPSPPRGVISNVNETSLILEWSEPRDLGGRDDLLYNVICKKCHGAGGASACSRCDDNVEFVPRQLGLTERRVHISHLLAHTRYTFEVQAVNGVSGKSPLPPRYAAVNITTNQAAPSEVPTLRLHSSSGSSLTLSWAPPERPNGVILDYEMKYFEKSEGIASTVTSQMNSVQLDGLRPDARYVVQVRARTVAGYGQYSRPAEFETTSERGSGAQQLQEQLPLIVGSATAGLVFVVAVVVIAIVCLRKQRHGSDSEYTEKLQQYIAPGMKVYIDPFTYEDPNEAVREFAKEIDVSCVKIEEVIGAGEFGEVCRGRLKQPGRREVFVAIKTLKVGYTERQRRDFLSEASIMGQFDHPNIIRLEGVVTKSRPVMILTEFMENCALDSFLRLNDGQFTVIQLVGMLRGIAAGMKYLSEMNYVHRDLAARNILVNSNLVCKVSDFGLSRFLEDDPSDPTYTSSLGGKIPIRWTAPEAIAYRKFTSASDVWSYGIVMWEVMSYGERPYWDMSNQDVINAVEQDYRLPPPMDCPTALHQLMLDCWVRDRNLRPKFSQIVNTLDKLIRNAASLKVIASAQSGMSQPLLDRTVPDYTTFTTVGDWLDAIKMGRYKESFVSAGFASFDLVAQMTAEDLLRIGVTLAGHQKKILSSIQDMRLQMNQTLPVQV
T19 sequence (P22607 23-806): as the sequence (P22607 23-806 G697C) above, with C675G counted along it

Cc1ccc(-n2cc(COc3cccc4cnc(Nc5cccc(Cl)c5)nc34)nn2)c([N+](=O)[O-])c1 [DB18]
remaining binding at 1 µM (ALK(L1196M)): 98%
remaining binding at 1 µM (PIK3CA(C420R)): 100%
remaining binding at 1 µM (PRKCD): 100%
remaining binding at 1 µM (WNK1): 100%
remaining binding at 1 µM (FGFR3(G697C)): 97%
remaining binding at 1 µM (NIM1): 100%
remaining binding at 1 µM (ERK5): 100%
remaining binding at 1 µM (PRKX): 97%
remaining binding at 1 µM (PAK7): 92%
remaining binding at 1 µM (MEK5): 95%
remaining binding at 1 µM (CAMK1D): 100%
remaining binding at 1 µM (PKNB(M.tuberculosis)): 97%
remaining binding at 1 µM (WEE2): 100%
remaining binding at 1 µM (MYLK4): 94%
remaining binding at 1 µM (HIPK4): 17%
IC50 (MCF7): 4 µM
remaining binding at 1 µM (PIK3C2B): 100%
Percent Control (FLT3(ITD,D835V)): 53 % Ctrl
remaining binding at 1 µM (TRPM6): 91%
remaining binding at 1 µM (FGFR4): 100%
remaining binding at 1 µM (FGFR3): 100%
IC50 (HuH7): 25 µM
remaining binding at 1 µM (MKNK1): 100%
remaining binding at 1 µM (AAK1): 100%
remaining binding at 1 µM [1]: 99%
IC50 (MDA-MB-231): > 25 µM
remaining binding at 1 µM (TESK1): 95%
remaining binding at 1 µM (ULK1): 100%
remaining binding at 1 µM (EPHB3): 100%
remaining binding at 1 µM (DMPK2): 100%
remaining binding at 1 µM (LTK): 80%
remaining binding at 1 µM (MRCKA): 100%
remaining binding at 1 µM (CAMK2D): 100%
remaining binding at 1 µM (EPHA3): 100%
remaining binding at 1 µM (BIKE): 99%
remaining binding at 1 µM (PIK4CB): 94%
remaining binding at 1 µM (TAOK2): 98%
remaining binding at 1 µM (ROS1): 100%
remaining binding at 1 µM (CTK): 96%
remaining binding at 1 µM (FRK): 83%
